The text below walks through data of paper PMC8279406 (Journal of Medicinal Chemistry, 2021).

The structures appear in SMILES notation. Some results are limits rather than exact numbers.

Usually IC50 stands for the concentration that gives 50% inhibition.

Assay [1] deals with T1, human αvβ8 integrin (Homo sapiens, UniProt P06756+P26012).
T1 construct: purchased R&D Systems (Biotechne brand) 4135-AV
The assay can be described thus: LAP(TGF-β1)-αvβ8 competitive solid-phase ELISA binding assay. As to conditions: for IC50: competitive ELISA, immobilized LAP, soluble integrin. The method, then: The affinity and selectivity of the integrin peptide ligands were ascertained according to a modified method previously reported by some of us.[33],[47] The binding was determined in a competitive solid-phase binding assay using extracellular matrix proteins, soluble integrins, and pertinent integrin-specific antibodies in an enzyme-linked immunosorbent assay (ELISA).
The experimental procedure is as described for the αvβ6 assay, except for the following modifications. The plates were coated, washed, and blocked as described above. Soluble integrin αvβ8 was mixed with an equal volume of serially diluted inhibitors resulting in a final integrin concentration of 0.25 μg/mL and 0.0032–10 μM for the inhibitors. The primary and secondary antibodies are the same as in the integrin αvβ6 assay. Visualization and analysis were performed as described above. Each plate contained a linear peptide ([…]) as the internal standard.[3]
For orientation: ELISA stands for enzyme-linked immunosorbent assay.

Assay [2] addresses alphaVbeta5 (Homo sapiens, UniProt P06756+P18084). The assay can be described thus: alphaVbeta5 binding affinities (supplementary CSV only). Conditions: unit inferred. From the text: Supplement jm1c00533_si_002.csv, table | column: alphaVbeta5 Binding affinities (IC50)
Assay [3] has as its system recombinant K26GFP HSV-1 strain. The assay can be described thus: Infection neutralization assay, transfected J cells, K26GFP HSV-1, EGFP expression. Conditions: for effect on HSV-1 infection (in words): J cells expressing nectin1 alone; for effect on virus entry (in words): J cells expressing nectin1 plus αvβ6 alone. It is filed as cell-based. An excerpt:
To this aim, we selected the J cells, which are negative for gD receptors and therefore cannot be infected by HSV-1 unless gD cognate receptors (i.e., nectin1) are transgenically expressed. […] In particular, J cells were transfected with low amounts of nectin1 plasmid, plus either αvβ6 or αvβ8 integrin plasmid or both, and then infected with the recombinant K26GFP HSV-1 strain. Indeed, the capsid protein ICP26 of this strain is fused to the green fluorescent protein (GFP),[60] whose cellular expression can be used to measure the viral infection. Thus, the K26GFP entry in J cells after compound treatment was evaluated using fluorescent microscopy (Figure 4A–T), and the enhanced green fluorescent protein (EGFP) expression was quantified using flow cytometry as the mean fluorescence intensity (MFI) of gated cells (Figure 4U). […] In parallel, we also evaluated the HSV infection in J cells expressing nectin1 plus either αvβ6 or αvβ8 alone.
J cells were transfected with a low amount (75 ng of DNA/24 well) of nectin1 alone (A–E), or with the same amount of nectin1 plus αvβ6 integrin (300 ng DNA/24 well) (F–J), or plus αvβ8 integrin (300 ng DNA/24 well) (K–O), or plus both the integrin receptors (P–T). […] The cells were infected with K26GFP. The nonpenetrated virus was inactivated by an acid wash. Infectivity was measured at 16 h after infection as EGFP expression. (A)–(T) panels show the EGFP expression in each sample for a typical experiment. (U) K26GFP infection was quantified as EGFP protein expression in the flow cytometry assay as the mean fluorescence intensity (MFI) of gated cells. Histograms represent the average of triplicates ± SD.
In other experiments, J cells were transfected with low amounts of plasmids encoding nectin1 (75 ng of DNA/24 well), plus or minus plasmids encoding αv + β6 or αv + β8 integrins (300 ng of DNA/24 well) or together by means of Lipofect 2000 (Life Technologies). The total amount of transfected plasmid DNA was made equal (675 ng/24 well) by the addition of Erb-2 plasmid DNA. […] Following infection, the unpenetrated virus was inactivated by means of an acid wash (40 mM citric acid, 10 mM KCl, 135 mM NaCl, pH 3),[87] and the cells were incubated for a further 16 h in the absence of the peptides or antibody. The extent of infection was assessed through EGFP expression.
Cytofluorimetric analyses were performed using an AccuriC6 flow cytometer (Becton Dickinson). A least 10 000 events were acquired for each sample. Microphotography of the inhibition experiment was conducted using a Nikon Eclipse Ni microscope.

For assay [4], the system named is T2, integrin β6.
T2 construct: expressed in transfected cells; host or cells: J cells (derivatives of BHK-TK2 hamster cells)
The assay can be described thus: Integrin internalization assay, surface integrin β6 by flow cytometry. It is filed as cell-based, human. As to conditions: J cells with nectin1, αvβ6 and αvβ8, 700 μM, 1 h at 37 °C. An excerpt:
Therefore, another mechanism might be responsible for the activity of 6 on J cells expressing αvβ8 integrin alone as well as the higher activity of 6 than that of 1 in cells that express both αvβ6 and αvβ8.[38] Thus, we hypothesized that 6 can prevent HSV-1 entry into J cells expressing nectin1 and the αvβ8 integrin alone by inducing internalization of the integrin itself. To validate our hypothesis, J cells were transfected with nectin1 and the two integrins αvβ6 and αvβ8 in the above-described manner. Then, 48 h after transfection, the cells were incubated for 60 min at 37 °C with 1 or 6. The surface expression of integrin β6 and β8, in the presence or the absence of peptides, was then evaluated by flow cytometry using FAB4155A (mAbβ6) and FAB4775A (mAbβ8) monoclonal antibodies that recognize other integrin regions than the RGD-binding domain.
Figure 5 Integrin internalization assay. J cells were transfected with a low amount (75 ng of DNA/24 well) of nectin1 plus αvβ6 integrin (300 ng of DNA/24 well) and αvβ8 integrin (300 ng of DNA/24 well). Then, 48 h after transfection, the cells were exposed to 700 μM peptides for 1 h at 37 °C. […] Integrin and nectin1 surface expression levels were quantified as flow cytometry expression of the APC mean fluorescence intensity (MFI) of gated cells. […]
A general note: A flow cytometer gives signals particle by particle.

Assay [5] has as its system nectin1. The assay can be described thus: Integrin internalization assay, surface nectin1 control by flow cytometry. It is filed as cell-based. As to conditions: J cells with nectin1, αvβ6 and αvβ8, 700 μM, 1 h at 37 °C. The protocol: Figure 5 Integrin internalization assay. J cells were transfected with a low amount (75 ng of DNA/24 well) of nectin1 plus αvβ6 integrin (300 ng of DNA/24 well) and αvβ8 integrin (300 ng of DNA/24 well). Then, 48 h after transfection, the cells were exposed to 700 μM peptides for 1 h at 37 °C. Cells derived from samples treated or not treated with peptides were incubated for 1 h at 4 °C with FAB4155A (mAbβ6), FAB4775A (mAbβ8), and R1.302 (mAbnectin1) mAbs. Samples incubated with R1.302 were washed and subsequently incubated for 1 h at 4 °C with the allophycocyanin (APC) mouse secondary antibody. Integrin and nectin1 surface expression levels were quantified as flow cytometry expression of the APC mean fluorescence intensity (MFI) of gated cells. Histograms represent the average of triplicates ± SD.
J cells were transfected with low amounts of plasmids encoding nectin1 (75 ng of DNA/24 well), plus plasmids encoding αv + β6 and αv + β8 integrins (300 ng of DNA/24 well) by means of Lipofect 2000 (Life Technologies). Then, 48 h after transfection, the cells were incubated with a single concentration of peptides (700 μM) for 1 h at 37 °C. At the end of the treatment with the peptides, half of the sample was used to visualize the expression of integrins β6 and β8 or of nectin1 used as a control in a flow cytometry assay. […]

Setting [6] is: J cells expressing nectin1 plus both αvβ6 and αvβ8, 700 μM.
The mark [7] stands for this setting: J cells expressing nectin1 plus αvβ8 alone, 700 μM.

In the case of `N=C(N)NCCC[C@@H]1NC(=O)CC[C@@H](C(N)=O)NC(=O)[C@H](C2CCCCC2)NC(=O)[C@H](CC(=O)O)NC(=O)CNC1=O` [compound 1, [Arg-Gly-Asp-Chg-Glu]-CONH2], the IC50 in assay [1] was 174 ± 31 nM; in assay [2], > 5000 nM. Besides, in assay [3] (700 μM), the “effect on HSV-1 infection (in words)” value was “only treatment with R1.302 (B) was effective”. Also, the figures for the “effect on HSV infection (in words)” value in assay [3] (setting [6]) and in assay [3] (setting [7]) were “only partially impaired” and “inhibitory effects were detected only in the presence of 6”, respectively. Moreover, the “effect on virus entry (in words)” value in assay [3] (700 μM) is “the virus entry was affected”. Further, the “membrane expression of integrin β6 (in words)” value in assay [4] is on record as “reduced”. Besides, in assay [5], the “surface expression of nectin1 (in words)” value was “not altered”.

Consider `CN1C(=O)[C@H](C2CCCCC2)NC(=O)[C@H](CC(=O)O)NC(=O)CNC(=O)[C@H](CCCNC(=N)N)NC(=O)CC[C@H]1C(N)=O` [compound 6, [Arg-Gly-Asp-Chg-(NMe)Glu]-CONH2], for which the “fold more potent than 1 for αvβ8” value in assay [1] (60 vs 174 nM) amounted to 3 fold. For the same compound, the figures for the IC50 in assay [1] and in assay [2] were 60 ± 2 nM and > 5000 nM, respectively. In assay [3] (700 μM), the “effect on HSV-1 infection (in words)” value is given as “only treatment with R1.302 (B) was effective”. In addition, the “effect on HSV infection (in words)” value in assay [3] (setting [6]) was “significantly reduced”; in assay [3] (setting [7]), “inhibitory effects were detected only in the presence of 6”. Also, the “effect on virus entry (in words)” value in assay [3] (700 μM) is “the virus entry was affected”. The “membrane expression of integrin β6 (in words)” value in assay [4] is “reduced”. Besides, the “surface expression of nectin1 (in words)” value in assay [5] was “not altered”.
